Results published in ChEMBL document CHEMBL1201862, “PubChem BioAssay data set” (2004).
Active and inactive are the calls of the source.

What was measured:
[1] = target: Eukaryotic translation initiation factor 4E (Mus musculus, UniProt P63073); assay: blockers of eIF4G binding by eIF4E – biochemical, TR-FRET, dose response (AID 855); format: functional;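 note: potency for disrupting eIF4E binding to eIF4GI seen as loss of FRET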
[2] = target: Intestinal-type alkaline phosphatase (Mus musculus, UniProt P24822); assay: PubChem AID 488874; format: functional
[3] = target: T1, Alkaline phosphatase, tissue-nonspecific isozyme (Homo sapiens, UniProt P05186); assay: inhibition of tissue-nonspecific alkaline phosphatase – biochemical, dose response (AID 488882); format: functional
T1 sequence (P05186 whole entry): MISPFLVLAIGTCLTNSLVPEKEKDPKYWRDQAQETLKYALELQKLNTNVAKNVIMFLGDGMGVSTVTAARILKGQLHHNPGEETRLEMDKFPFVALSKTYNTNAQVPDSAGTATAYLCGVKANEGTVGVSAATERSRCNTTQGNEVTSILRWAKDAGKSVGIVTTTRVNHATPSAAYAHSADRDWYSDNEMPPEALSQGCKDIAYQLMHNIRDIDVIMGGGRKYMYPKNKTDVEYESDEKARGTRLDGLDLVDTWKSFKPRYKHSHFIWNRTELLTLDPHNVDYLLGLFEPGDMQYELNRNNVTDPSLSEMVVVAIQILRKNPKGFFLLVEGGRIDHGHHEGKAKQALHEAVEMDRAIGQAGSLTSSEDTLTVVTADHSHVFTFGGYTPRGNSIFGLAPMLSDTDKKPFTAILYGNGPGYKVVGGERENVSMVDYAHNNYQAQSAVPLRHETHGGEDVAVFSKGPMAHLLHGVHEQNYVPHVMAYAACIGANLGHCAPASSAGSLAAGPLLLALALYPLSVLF

[4] = target: T2, Calpain-2 catalytic subunit (Sus scrofa, UniProt P43367); assay: m-calpain protease blockers, concentration series – biochemical, fluorogenic peptide substrate, dose response (AID 1420); format: functional
T2 sequence (P43367 whole entry): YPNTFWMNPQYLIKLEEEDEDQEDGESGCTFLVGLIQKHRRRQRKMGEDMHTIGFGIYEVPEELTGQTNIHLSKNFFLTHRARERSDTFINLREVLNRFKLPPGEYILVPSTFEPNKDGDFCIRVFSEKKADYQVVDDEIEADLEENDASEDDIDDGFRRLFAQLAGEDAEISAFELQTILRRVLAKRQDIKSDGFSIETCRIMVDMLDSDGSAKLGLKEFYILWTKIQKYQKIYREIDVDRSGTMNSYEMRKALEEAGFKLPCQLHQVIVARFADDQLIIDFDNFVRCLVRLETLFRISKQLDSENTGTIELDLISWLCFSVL

[5] = target: T3, Mannose-6-phosphate isomerase (Homo sapiens, UniProt P34949); assay: MPI enzyme activity inhibition – biochemical, fluorescence intensity, coupled assay, primary screen (AID 1209)
T3 sequence (P34949 whole entry): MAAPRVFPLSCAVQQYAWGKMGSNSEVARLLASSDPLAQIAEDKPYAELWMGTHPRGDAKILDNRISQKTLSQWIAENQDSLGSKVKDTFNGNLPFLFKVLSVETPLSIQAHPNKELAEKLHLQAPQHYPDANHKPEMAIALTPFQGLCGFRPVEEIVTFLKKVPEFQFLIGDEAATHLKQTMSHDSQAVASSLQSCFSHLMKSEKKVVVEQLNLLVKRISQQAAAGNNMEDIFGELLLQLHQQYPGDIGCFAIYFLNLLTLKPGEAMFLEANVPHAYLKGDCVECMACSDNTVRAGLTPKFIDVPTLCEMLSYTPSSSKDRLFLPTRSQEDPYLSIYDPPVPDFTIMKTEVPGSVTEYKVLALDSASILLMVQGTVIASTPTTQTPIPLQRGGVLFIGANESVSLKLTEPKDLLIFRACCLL

[6] = target: T4, Histone-lysine N-methyltransferase NSD2 (Homo sapiens, UniProt O96028); format: biochemical
T4 sequence (O96028 whole entry): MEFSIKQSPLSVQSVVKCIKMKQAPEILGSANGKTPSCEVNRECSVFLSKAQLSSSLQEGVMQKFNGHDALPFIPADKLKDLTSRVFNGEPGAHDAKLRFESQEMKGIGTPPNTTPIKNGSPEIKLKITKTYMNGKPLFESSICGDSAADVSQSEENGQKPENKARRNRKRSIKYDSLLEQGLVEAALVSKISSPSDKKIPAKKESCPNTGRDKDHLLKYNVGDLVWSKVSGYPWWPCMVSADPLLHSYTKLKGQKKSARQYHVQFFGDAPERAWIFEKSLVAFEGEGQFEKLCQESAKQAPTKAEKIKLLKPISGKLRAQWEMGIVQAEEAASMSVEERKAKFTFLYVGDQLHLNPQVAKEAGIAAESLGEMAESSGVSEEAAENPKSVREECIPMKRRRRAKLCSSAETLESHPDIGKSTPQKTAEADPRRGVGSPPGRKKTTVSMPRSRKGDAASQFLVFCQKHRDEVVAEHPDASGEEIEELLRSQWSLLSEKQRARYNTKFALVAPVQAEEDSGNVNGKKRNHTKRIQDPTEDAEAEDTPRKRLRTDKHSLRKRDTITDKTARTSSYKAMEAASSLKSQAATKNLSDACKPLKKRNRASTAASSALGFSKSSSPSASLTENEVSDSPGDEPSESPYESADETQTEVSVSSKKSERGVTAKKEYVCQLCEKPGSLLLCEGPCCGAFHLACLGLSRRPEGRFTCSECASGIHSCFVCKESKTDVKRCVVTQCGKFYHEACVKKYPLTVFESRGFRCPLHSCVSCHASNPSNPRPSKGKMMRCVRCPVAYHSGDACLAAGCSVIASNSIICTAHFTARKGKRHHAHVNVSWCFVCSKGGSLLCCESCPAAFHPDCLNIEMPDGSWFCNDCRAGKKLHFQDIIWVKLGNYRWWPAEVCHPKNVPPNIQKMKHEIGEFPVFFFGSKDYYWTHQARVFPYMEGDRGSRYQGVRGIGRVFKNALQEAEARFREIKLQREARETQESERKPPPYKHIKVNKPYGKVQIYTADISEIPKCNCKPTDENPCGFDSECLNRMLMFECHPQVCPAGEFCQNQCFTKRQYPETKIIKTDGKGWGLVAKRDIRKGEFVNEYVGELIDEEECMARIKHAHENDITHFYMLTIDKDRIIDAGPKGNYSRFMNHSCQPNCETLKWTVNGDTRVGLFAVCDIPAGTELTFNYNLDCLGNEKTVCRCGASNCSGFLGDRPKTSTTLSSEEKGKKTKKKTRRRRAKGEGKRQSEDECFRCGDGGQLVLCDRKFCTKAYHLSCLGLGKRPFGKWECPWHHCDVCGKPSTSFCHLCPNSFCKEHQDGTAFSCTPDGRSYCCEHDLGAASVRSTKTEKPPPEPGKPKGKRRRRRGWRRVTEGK

[7] = target: T5, Intestinal-type alkaline phosphatase (Homo sapiens, UniProt P09923); assay: inhibition of human intestinal alkaline phosphatase – biochemical, luminescent, uHTS hits, set 2, dose response (AID 488793); format: functional
[8] = target: T5, Intestinal-type alkaline phosphatase; assay: Dose Response confirmation of uHTS hits from a small molecule inhibitors of human intestinal alkaline phosphatase via a luminescent assay. [Related pubchem assays (depositor defined):AID2544, AID2574]; format: functional
[9] = viability loss of HMLE_sh_eGFP cells – cell-based, luminescence, counter-screen for HMLE_sh_ECad selective toxicity project, dose response (AID 463074); format: functional, Homo sapiens;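 note: HMLE human mammary epithelial cells expressing control shRNA against eGFP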
[10] = Luminescence Cell-Based Dose Retest to Confirm Inhibitors of Cancer Stem Cells. [Related pubchem assays (depositor defined):AID2717, AID2721]; format: functional; details: Homo sapiens
[11] = target: T6, Short transient receptor potential channel 4 (Mus musculus, UniProt Q9QUQ5); assay: potency of mouse TRPC4 calcium flux blockers – cell-based, HEK293 TRPC4/mu-opioid, DAMGO stimulus, Fluo-4, dose response (AID 492994); format: functional
T6 sequence (Q9QUQ5 whole entry): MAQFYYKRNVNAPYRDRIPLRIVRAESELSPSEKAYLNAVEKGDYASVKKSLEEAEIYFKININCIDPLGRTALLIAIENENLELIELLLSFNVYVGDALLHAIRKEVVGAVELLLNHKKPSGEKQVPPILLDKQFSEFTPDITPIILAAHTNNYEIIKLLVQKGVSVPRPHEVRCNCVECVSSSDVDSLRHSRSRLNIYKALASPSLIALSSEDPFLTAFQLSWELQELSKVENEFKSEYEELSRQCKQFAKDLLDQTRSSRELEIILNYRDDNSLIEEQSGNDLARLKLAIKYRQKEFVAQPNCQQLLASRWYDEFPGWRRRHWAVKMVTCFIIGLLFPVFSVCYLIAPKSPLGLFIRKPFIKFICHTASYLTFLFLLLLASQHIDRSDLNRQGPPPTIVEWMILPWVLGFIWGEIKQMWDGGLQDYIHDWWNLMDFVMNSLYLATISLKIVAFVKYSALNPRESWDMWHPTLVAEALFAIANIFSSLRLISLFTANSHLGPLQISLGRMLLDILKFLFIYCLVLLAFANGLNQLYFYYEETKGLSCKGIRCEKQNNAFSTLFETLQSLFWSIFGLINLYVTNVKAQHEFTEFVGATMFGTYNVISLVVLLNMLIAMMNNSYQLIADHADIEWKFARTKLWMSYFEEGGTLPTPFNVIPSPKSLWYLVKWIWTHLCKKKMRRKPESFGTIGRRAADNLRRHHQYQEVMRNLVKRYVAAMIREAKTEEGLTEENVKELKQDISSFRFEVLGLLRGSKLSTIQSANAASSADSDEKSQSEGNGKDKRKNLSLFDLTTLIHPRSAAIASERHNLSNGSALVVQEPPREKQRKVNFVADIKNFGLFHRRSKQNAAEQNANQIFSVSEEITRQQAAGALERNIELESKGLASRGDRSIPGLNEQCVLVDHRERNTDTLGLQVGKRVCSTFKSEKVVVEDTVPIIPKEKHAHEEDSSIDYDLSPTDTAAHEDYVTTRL

T5 sequence (P09923 whole entry): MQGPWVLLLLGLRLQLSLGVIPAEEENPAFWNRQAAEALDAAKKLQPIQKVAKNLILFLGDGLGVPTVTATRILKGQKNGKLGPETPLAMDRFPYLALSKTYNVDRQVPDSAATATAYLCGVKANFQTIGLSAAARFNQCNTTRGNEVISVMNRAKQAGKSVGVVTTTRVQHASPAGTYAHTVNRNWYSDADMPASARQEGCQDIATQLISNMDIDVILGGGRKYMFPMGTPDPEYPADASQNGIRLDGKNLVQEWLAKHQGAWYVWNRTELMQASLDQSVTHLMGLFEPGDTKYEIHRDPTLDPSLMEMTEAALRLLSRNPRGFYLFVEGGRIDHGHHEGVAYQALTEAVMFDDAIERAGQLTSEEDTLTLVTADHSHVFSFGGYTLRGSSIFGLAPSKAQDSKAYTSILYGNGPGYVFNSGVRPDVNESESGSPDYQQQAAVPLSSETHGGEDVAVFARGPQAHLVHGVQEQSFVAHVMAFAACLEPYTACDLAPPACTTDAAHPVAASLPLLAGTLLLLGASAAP
Eukaryotic translation initiation factor 4E, sequence (P63073 whole entry): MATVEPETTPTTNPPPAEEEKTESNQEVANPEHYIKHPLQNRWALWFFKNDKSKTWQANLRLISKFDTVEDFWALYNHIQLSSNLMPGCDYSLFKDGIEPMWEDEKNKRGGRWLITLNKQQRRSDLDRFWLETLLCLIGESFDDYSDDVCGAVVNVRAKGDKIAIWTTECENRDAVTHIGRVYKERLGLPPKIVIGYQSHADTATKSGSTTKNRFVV
Intestinal-type alkaline phosphatase (Mus musculus, UniProt P24822), sequence (P24822 whole entry): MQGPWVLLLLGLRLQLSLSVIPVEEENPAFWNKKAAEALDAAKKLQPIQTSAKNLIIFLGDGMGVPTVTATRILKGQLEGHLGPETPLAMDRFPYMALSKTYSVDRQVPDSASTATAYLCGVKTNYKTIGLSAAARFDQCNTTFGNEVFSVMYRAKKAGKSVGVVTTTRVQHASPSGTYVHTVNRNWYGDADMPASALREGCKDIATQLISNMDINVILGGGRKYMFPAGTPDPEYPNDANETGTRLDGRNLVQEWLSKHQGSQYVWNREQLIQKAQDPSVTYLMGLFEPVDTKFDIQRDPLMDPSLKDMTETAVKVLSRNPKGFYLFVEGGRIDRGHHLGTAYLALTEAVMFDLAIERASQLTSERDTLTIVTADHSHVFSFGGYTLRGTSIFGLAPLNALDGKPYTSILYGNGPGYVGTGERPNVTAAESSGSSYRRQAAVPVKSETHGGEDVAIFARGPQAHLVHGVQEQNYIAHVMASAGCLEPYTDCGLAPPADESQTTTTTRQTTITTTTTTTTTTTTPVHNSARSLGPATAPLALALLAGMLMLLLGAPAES

CC[n+]1c(/C=C/c2c[nH]c3ccccc23)ccc2cc(C)ccc21
IC50 [1]: 50 µM (inactive)
IC50 [2]: 11 µM (active)
IC50 [3]: 10.8 µM (active)
IC50 [4]: 24.6 µM (not active)
IC50 [5]: > 50 µM (not active)
AC50 [6]: > 20 µM (inactive)
IC50 [7]: 10.2 µM (active)
IC50 [8]: 9.63 µM (active)

CN(c1ccccc1)c1ccc(/C=C(\C#N)c2nnc3n2CCCCC3)cc1[N+](=O)[O-]
AC50 [9]: 24.3 µM (active)
AC50 [10]: 0.597 µM (active)

COCCN(C)c1cc(C)c2ccccc2n1
IC50 [11]: 20.8 µM (active)
